{
  "source": "paper PMC9814781",
  "about": "“Structure-based design of a dual-warhead covalent inhibitor of FGFR4” (Communications Chemistry, 2022)",
  "key": {"KHS": {"molecular_target": "KHS (Homo sapiens, UniProt Q9Y4K4)", "sequence (Q9Y4K4 whole entry)": "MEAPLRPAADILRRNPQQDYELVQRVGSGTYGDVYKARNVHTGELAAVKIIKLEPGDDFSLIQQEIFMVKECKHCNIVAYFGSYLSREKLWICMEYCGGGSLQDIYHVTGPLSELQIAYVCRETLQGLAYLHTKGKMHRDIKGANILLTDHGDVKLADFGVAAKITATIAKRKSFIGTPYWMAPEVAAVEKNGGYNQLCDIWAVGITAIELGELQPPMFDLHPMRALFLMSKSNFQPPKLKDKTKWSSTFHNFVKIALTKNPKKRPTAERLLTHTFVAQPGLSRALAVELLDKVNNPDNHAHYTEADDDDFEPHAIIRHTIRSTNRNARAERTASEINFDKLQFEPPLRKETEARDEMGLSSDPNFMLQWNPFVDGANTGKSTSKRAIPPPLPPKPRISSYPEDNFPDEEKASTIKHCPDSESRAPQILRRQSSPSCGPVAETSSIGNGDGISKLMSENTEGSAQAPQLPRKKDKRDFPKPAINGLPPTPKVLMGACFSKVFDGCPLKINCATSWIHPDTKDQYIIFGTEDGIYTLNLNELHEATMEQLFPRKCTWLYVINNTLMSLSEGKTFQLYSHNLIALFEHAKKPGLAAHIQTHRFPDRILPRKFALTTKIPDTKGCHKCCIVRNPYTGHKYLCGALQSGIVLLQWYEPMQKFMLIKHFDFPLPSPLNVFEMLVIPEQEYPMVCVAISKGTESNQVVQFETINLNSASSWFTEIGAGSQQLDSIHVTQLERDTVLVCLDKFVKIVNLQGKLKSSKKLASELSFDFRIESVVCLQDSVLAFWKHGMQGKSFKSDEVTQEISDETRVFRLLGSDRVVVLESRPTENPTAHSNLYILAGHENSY", "test": "Kinase selectivity profiling"}, "FGFR1": {"molecular_target": "FGFR1 (Homo sapiens, UniProt P11362)", "test": "Kinase selectivity profiling"}, "FYNb": {"molecular_target": "FYNb (Homo sapiens, UniProt P06241)", "test": "Kinase selectivity profiling"}, "SGK3": {"molecular_target": "SGK3 (Homo sapiens, UniProt Q96BR1)", "test": "Kinase selectivity profiling"}, "GSH reaction assay": {"test": "GSH reaction assay", "assay_type": "in vitro ADME", "conditions": "GSH 5 mM, inhibitor 1 mM, 37°C, 10–60 min", "description": "GSH (5 mM) and inhibitor (1 mM) or DMSO control were mixed in equal volumes and reacted at 37°C for 10 min, 20 min, 30 min, 40 min, 50 min, and 60 min. The remaining GSH was detected with DTNB (Beyotime, China), and the absorption light was measured at 412 nm on a plate reader (Perkin-Elmer). Data were determined using the time (min) versus % of control in Origin 2018 software."}, "KIT[D816V]": {"molecular_target": "KIT[D816V] (Homo sapiens, UniProt P10721, D816V)", "test": "Kinase selectivity profiling"}, "BRAF": {"molecular_target": "BRAF (Homo sapiens, UniProt P15056)", "test": "Kinase selectivity profiling"}, "HIPK1": {"molecular_target": "HIPK1 (Homo sapiens, UniProt Q86Z02)", "sequence (Q86Z02 whole entry)": "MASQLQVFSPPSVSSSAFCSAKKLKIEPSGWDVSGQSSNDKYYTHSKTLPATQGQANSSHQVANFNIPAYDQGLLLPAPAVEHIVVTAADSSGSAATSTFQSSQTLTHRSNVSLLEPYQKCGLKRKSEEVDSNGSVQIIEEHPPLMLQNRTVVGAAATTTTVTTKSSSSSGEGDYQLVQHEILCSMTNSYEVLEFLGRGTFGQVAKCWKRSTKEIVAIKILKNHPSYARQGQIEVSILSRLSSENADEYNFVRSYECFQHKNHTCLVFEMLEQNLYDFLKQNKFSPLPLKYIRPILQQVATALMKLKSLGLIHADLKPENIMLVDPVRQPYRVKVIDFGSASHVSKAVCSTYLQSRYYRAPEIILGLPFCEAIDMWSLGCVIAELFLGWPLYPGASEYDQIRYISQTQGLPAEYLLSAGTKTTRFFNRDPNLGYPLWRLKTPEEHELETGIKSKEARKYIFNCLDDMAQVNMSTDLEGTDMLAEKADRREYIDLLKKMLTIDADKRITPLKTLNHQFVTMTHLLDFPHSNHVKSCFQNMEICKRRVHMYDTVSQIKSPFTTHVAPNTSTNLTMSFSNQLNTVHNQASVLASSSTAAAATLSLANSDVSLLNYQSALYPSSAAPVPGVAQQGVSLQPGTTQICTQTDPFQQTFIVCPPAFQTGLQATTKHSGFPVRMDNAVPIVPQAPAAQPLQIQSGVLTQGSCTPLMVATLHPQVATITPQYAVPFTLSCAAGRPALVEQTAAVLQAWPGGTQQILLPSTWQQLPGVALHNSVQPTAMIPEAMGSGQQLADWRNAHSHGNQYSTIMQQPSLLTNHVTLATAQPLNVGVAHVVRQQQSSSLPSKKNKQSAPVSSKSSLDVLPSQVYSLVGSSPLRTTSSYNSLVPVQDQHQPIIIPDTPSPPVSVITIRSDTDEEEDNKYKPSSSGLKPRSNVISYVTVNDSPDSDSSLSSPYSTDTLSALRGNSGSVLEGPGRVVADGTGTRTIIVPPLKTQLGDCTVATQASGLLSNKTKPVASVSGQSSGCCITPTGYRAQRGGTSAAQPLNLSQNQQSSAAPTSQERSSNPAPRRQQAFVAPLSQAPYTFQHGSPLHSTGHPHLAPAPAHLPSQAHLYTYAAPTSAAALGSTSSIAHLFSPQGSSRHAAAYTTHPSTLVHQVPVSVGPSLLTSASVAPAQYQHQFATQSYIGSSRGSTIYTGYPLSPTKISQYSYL", "test": "Kinase selectivity profiling"}, "MINK": {"molecular_target": "MINK (Homo sapiens, UniProt Q8N4C8)", "test": "Kinase selectivity profiling"}, "CDK5/p25NCK": {"molecular_target": "CDK5/p25NCK (Homo sapiens, UniProt Q00535)", "sequence (Q00535 whole entry)": "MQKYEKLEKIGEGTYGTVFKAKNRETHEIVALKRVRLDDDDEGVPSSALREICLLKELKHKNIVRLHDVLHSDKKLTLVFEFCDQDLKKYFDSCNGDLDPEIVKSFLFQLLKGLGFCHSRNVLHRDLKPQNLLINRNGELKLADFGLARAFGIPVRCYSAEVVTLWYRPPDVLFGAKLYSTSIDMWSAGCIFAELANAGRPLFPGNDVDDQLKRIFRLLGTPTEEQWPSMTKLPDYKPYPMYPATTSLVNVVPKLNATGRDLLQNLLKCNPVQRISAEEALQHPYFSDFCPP", "sequence (Q15078 99-307 partner limits assumed)": "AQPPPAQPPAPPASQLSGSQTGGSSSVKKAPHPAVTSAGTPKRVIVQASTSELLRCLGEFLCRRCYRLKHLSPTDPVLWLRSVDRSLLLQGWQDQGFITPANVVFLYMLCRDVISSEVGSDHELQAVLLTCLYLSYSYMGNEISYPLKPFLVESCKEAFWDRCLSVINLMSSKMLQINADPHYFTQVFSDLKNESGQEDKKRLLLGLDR", "test": "Kinase selectivity profiling"}, "CDK2/CycE1": {"molecular_target": "CDK2/CycE1 (Homo sapiens, UniProt P24941)", "test": "Kinase selectivity profiling"}, "MAP4K2": {"molecular_target": "MAP4K2 (Homo sapiens, UniProt Q12851)", "test": "Kinase selectivity profiling"}, "RSK2": {"molecular_target": "RSK2 (Homo sapiens, UniProt P51812)", "sequence (P51812 whole entry)": "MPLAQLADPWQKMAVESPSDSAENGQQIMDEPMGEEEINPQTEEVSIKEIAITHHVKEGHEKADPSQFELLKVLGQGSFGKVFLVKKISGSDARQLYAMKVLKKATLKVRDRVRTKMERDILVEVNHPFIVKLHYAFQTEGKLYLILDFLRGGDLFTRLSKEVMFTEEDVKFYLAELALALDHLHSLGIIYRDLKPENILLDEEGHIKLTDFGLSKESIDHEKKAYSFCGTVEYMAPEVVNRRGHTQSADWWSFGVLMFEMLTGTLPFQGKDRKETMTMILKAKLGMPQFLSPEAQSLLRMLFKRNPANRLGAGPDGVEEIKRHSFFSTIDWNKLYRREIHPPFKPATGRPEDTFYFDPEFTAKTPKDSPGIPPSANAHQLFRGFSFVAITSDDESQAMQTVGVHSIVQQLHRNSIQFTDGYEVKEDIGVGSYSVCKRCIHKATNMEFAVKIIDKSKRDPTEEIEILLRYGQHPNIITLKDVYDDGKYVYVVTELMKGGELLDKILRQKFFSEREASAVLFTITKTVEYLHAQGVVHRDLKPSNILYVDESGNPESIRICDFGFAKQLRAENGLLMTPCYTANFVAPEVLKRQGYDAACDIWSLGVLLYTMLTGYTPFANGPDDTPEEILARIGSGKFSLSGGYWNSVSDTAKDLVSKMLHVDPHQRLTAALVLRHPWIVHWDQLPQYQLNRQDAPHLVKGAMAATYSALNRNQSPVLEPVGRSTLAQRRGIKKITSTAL", "test": "Kinase selectivity profiling"}, "IKKε(IKBKE)": {"molecular_target": "IKKε(IKBKE) (Homo sapiens, UniProt Q14164)", "test": "Kinase selectivity profiling"}, "FGFR3": {"molecular_target": "FGFR3 (Homo sapiens, UniProt P22607)", "sequence (P22607 450-758)": "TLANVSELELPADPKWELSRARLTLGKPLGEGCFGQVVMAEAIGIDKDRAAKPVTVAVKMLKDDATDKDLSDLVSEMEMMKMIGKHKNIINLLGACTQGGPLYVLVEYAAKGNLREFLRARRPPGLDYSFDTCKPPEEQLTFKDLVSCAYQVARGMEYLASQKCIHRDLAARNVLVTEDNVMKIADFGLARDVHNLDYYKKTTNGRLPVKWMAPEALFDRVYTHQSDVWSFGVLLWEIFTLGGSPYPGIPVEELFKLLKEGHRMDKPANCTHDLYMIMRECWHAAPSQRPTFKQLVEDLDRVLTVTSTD", "test": "Kinase inhibition assay (ADP-Glo)", "assay_type": "biochemical", "design": "FGFR3 (residues 450–758); 6xHis + PreScission site (N, cleaved yes); made in house; host or cells: Escherichia coli Rosseta", "description": "Wild-type FGFRs and mutant FGFRs were prepared as previously described[25]–[27]. In brief, the kinase domains of human FGFR1 (residues 456–765), FGFR2 (residues 453–770), FGFR3 (residues 450–758), and FGFR4 (residues 445–753) were cloned into a modified pET28a expression vector and then transfected into Escherichia coli Rosseta cells. The N-terminal of the recombinant proteins were contained a 6xHis tag followed by a PreScission cleavage site for FGFR1, FGFR2, FGFR3, and FGFR4. Site-directed mutagenesis of FGFR4 was generated according to the ClonExpress II One Step Cloning Kit (Vazyme) using the pET28a-FGFR4 plasmid as the template. These mutants were confirmed by DNA sequencing (Tsingke, Changsha, China). For crystallization experiments, the wild-type FGFR4 plasmid was co-expressed with untagged YOPH to obtain non-phosphorylated proteins. The proteins were first purified by Ni-NTA affinity chromatography. […]\nAll kinase inhibition assays were performed with optimized kinase assay buffer consisting of 40 mM Tris-HCl pH 7.5, 20 mM MgCl2, 20 mM NaCl, 0.1 mg/mL BSA, 1 mM TCEP, and 4% DMSO. […] Fluorescence was measured on a multimode plate reader (Perkin-Elmer) using a chemiluminescence program after the addition of the detection reagent. IC50 values were determined using a three-parameter log [Inhibitor] versus response model in GraphPad Prism software."}, "TIE2": {"molecular_target": "TIE2 (Homo sapiens, UniProt Q02763)", "test": "Kinase selectivity profiling"}, "BTK": {"molecular_target": "BTK (Homo sapiens, UniProt Q06187)", "test": "Kinase selectivity profiling"}, "EPHA3": {"molecular_target": "EPHA3 (Homo sapiens, UniProt P29320)", "sequence (P29320 21-983)": "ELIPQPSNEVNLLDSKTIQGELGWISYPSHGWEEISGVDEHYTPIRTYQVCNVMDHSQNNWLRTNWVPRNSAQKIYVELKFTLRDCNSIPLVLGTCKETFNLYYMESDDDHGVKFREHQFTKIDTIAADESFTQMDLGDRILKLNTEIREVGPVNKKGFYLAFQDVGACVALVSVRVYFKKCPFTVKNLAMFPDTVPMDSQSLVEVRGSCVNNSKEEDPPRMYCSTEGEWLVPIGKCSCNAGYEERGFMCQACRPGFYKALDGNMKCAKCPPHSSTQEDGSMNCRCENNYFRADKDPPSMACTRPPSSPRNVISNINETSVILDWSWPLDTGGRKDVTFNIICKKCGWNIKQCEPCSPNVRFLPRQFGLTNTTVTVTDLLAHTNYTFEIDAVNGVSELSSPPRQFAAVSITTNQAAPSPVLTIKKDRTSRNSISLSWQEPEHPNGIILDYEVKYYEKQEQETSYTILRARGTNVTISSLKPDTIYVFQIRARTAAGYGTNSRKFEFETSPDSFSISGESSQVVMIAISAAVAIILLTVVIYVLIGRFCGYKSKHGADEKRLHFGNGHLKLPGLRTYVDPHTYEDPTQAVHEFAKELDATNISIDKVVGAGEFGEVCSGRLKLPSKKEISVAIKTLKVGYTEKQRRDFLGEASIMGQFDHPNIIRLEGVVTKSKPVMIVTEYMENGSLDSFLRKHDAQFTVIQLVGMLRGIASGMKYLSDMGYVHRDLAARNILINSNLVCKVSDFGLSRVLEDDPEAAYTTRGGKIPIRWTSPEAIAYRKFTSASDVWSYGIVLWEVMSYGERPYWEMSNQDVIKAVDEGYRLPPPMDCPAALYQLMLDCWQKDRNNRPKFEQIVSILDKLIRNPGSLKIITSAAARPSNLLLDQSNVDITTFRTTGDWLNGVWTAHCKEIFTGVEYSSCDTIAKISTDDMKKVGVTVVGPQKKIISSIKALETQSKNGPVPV", "test": "Kinase selectivity profiling"}, "FLT4 (VEGFR3)": {"molecular_target": "FLT4 (VEGFR3) (Homo sapiens, UniProt P35916)", "test": "Kinase selectivity profiling"}, "BRAF[V600E]": {"molecular_target": "BRAF[V600E] (Homo sapiens, UniProt P15056, V600E)", "test": "Kinase selectivity profiling"}, "GSK3β": {"molecular_target": "GSK3β (Homo sapiens, UniProt P49841)", "sequence (P49841 whole entry)": "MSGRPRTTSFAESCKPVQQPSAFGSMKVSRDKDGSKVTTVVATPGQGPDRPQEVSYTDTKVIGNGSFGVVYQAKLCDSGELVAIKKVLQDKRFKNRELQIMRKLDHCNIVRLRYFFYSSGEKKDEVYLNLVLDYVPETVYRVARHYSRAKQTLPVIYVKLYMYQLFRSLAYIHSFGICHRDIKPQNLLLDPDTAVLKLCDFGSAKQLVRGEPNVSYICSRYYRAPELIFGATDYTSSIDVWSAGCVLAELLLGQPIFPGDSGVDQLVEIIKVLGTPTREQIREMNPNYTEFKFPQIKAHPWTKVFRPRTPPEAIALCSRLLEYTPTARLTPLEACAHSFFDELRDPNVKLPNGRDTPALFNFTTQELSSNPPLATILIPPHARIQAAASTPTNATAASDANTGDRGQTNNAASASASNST", "test": "Kinase selectivity profiling"}, "ZAP70": {"molecular_target": "ZAP70 (Homo sapiens, UniProt P43403)", "test": "Kinase selectivity profiling"}, "CDK18/CycY": {"molecular_target": "CDK18/CycY (Homo sapiens, UniProt Q07002)", "test": "Kinase selectivity profiling"}, "PI3K(p120gamma)": {"molecular_target": "PI3K(p120gamma) (Homo sapiens, UniProt P48736)", "test": "Kinase selectivity profiling"}, "BRSK2": {"molecular_target": "BRSK2 (Homo sapiens, UniProt Q8IWQ3)", "test": "Kinase selectivity profiling"}},
  "data": [
    {"smiles": "C=CC(=O)Nc1ccccc1Nc1ncc2c(n1)N(CCCN1CCN(C(=O)C=C)CC1)C(=O)N(c1cc(OC)cc(OC)c1)C2", "note": "[CXF-009]", "values": [
      {"measurement": "inhibition at 1 µM", "setting": "KHS", "result": 4.11, "unit": "%"},
      {"measurement": "inhibition at 1 µM", "setting": "FGFR1", "result": 4.98, "unit": "%"},
      {"measurement": "inhibition at 1 µM", "setting": "FYNb", "result": -2.49, "unit": "%"},
      {"measurement": "inhibition at 1 µM", "setting": "SGK3", "result": 1.58, "unit": "%"},
      {"measurement": "GSH reactivity (remaining GSH, DTNB)", "setting": "GSH reaction assay", "result": "slightly more reactive to GSH than PRN1371"},
      {"measurement": "inhibition at 1 µM", "setting": "KIT[D816V]", "result": -6.19, "unit": "%"},
      {"measurement": "inhibition at 1 µM", "setting": "BRAF", "result": -0.93, "unit": "%"},
      {"measurement": "inhibition at 1 µM", "setting": "HIPK1", "result": -5.67, "unit": "%"},
      {"measurement": "inhibition at 1 µM", "setting": "MINK", "result": 16.6, "unit": "%"},
      {"measurement": "inhibition at 1 µM", "setting": "CDK5/p25NCK", "result": -5.5, "unit": "%"},
      {"measurement": "inhibition at 1 µM", "setting": "CDK2/CycE1", "result": 1.59, "unit": "%"},
      {"measurement": "inhibition at 1 µM", "setting": "MAP4K2", "result": 1.43, "unit": "%"},
      {"measurement": "inhibition at 1 µM", "setting": "RSK2", "result": 2.24, "unit": "%"},
      {"measurement": "inhibition at 1 µM", "setting": "IKKε(IKBKE)", "result": 7.21, "unit": "%"},
      {"measurement": "IC50", "setting": "FGFR3", "result": 977, "unit": "nM"},
      {"measurement": "inhibition at 1 µM", "setting": "TIE2", "result": -12.8, "unit": "%"},
      {"measurement": "inhibition at 1 µM", "setting": "BTK", "result": -5.76, "unit": "%"},
      {"measurement": "inhibition at 1 µM", "setting": "EPHA3", "result": -1.81, "unit": "%"},
      {"measurement": "inhibition at 1 µM", "setting": "FLT4 (VEGFR3)", "result": 0.74, "unit": "%"},
      {"measurement": "inhibition at 1 µM", "setting": "BRAF[V600E]", "result": -1.68, "unit": "%"},
      {"measurement": "inhibition at 1 µM", "setting": "GSK3β", "result": -0.37, "unit": "%"},
      {"measurement": "inhibition at 1 µM", "setting": "ZAP70", "result": 11.8, "unit": "%"},
      {"measurement": "inhibition at 1 µM", "setting": "CDK18/CycY", "result": -3.74, "unit": "%"},
      {"measurement": "inhibition at 1 µM", "setting": "PI3K(p120gamma)", "result": 15, "unit": "%"},
      {"measurement": "inhibition at 1 µM", "setting": "BRSK2", "result": -5.03, "unit": "%"}
    ]}
  ]
}
